Data as given in ChEMBL document CHEMBL1143157, “New fused benzazepine as selective D3 receptor antagonists. Synthesis and biological evaluation. Part 2: [g]-fused and hetero-fused systems” (Bioorg Med Chem Lett, 2008).

Legend:
[1] = in vivo; conditions: rat, brain and blood, iv
[2] = in vivo; conditions: rat, whole blood
[3] = in vivo; conditions: rat
[4] = in vivo; conditions: rat, po
[5] = in vivo; conditions: rat; remark: listed apart in the source

Row | Kp at 1 h [1] | clearance [2] | Vd [3] | bioavailability [4] | half-life [5] | Structure (SMILES)
1 | 4 | 43 mL/min/kg | 3.31 L/kg | 8% | – | Cc1ccc2c(-c3nnc(SCCCN4CCc5ccc6nc(C(C)(F)F)oc6c5CC4)n3C)cccc2n1
2 | 0.8 | 35 mL/min/kg | 1.6 L/kg | 63% | 0.6 h | Cc1ncoc1-c1nnc(SCCCN2CCc3ccc4oc(C(F)(F)F)nc4c3CC2)n1C
3 | 2.5 | 48 mL/min/kg | – | 15% | 1.7 h | Cc1ccc2c(-c3nnc(SCCCN4CCc5ccc6oc(C)nc6c5CC4)n3C)cccc2n1
4 | 0.1 | 5 mL/min/kg | 0.61 L/kg | 73% | 1.9 h | CCc1nc2c3c(ccc2o1)CCN(CCCSc1nnc(-c2ocnc2C)n1C)CC3
5 | 0.2 | 9 mL/min/kg | 0.8 L/kg | 54% | 1.2 h | Cc1ncoc1-c1nnc(SCCCN2CCc3ccc4oc(C(C)(F)F)nc4c3CC2)n1C
